Laboratory results taken from US4737583A, “Anthracyclin derivatives” (priority 1983, dated 1988).
In brackets after ≈: the same amount, converted by molar mass. Like-named read-outs stand apart in the source and are kept apart here.

Assays:
L1210 leukemia cells = test: cell proliferation test, incorporation of C14-thymidine into DNA of L1210 leukemia cells; type: cell-based; details: Mus musculus
Method: The cytorhodins according to the invention are distinguished by a powerful cytostatic activity and gave the following action on L1210 leukemia cells in the cell proliferation test:
The inhibiting action is determined as follows (cell proliferation test):
L1210 cells in the exponential growth phase (5×10^3 /ml in RPMI 1640) are incubated with various concentrations of the test substance in a microtiter plate for 72 hours (37° C., 5% of CO2, 95% relative atmospheric humidity). Controls comprise cells which are incubated only with fresh medium. All the determinations are carried out as quadruplicate determinations. After 65 hours, 50 μl of C14-thymidine (1.5 μC/ml) are added in order to radioactively label the DNA of the cells. After incubation for 7 hours, the cells are filtered off with suction and the DNA is precipitated with 5% strength trichloroacetic acid and washed successively with water and methanol. After drying at 50° C., the radioactivity incorporated into the DNA is determined, after addition of 5 ml of scintillation liquid. The results are given as the relationships of the scintillation index after incubation with test substance in percent of the untreated control. […]

[1] = solubility (description of the substance)

| Structure (SMILES) | IC50 (L1210 leukemia cells; L1210 leukemia cells, 72 hours, 37° C., incorporation of radioactive thymidine reduced by 50% compared with the control, read-out: IC50) [ng/mL] | solubility in methanol, ethyl acetate, chloroform and toluene [1] | solubility in water and hexane [1] | IC50 (L1210 leukemia cells; L1210, 72 h) [ng/mL] |
| --- | --- | --- | --- | --- |
| CCC1(O)CC(OC2CC(N(C)C)C(OC3CC4OC5CC(=O)C(C)OC5OC4C(C)O3)C(C)O2)c2c(O)c3c(c(O)c2C1OC1CC(N(C)C)C(O)C(C)O1)C(=O)c1cccc(O)c1C3=O (stereo not drawn) [Cytorhodin S] | 0.3 (≈ 0.319 nM) | readily soluble | insoluble | – |
| CCC1(O)CC(OC2CC(N(C)C)C(O)C(C)O2)c2c(O)c3c(c(O)c2C1OC1CC(N(C)C)C(OC2CC4OC5CC(=O)C(C)OC5OC4C(C)O2)C(C)O1)C(=O)c1cccc(O)c1C3=O (stereo not drawn) [Cytorhodin T] | – | readily soluble | insoluble | 2 (≈ 2.13 nM) |
